Values after ≈ are worked out from the molar mass of the structure shown. Like-named read-outs stand apart in the source and are kept apart here.
Experiments:
Jurkat cells = experiment: Cell cytotoxicity assay in Jurkat cells (assay (c)); assay type: cell-based, human; details: 24 h, propidium iodide, normalised to DMSO control
Procedure: (c) Cell Cytotoxicity Assay
1×10^5 Jurkat cells (immortalised human T lymphocytes) are added to the appropriate number of wells of a 96 well plate in 100 μL of media (RPMI supplemented with 10% foetal bovine serum). 1 μL of DMSO control (final concentration 1.0% v/v) or test compound (final concentration 20, 5 or 1 μg/mL) is added to the wells and incubated at 37° C., 5% CO2. After 24 hours, the plate is centrifuged at 1200 rpm for 3 minutes and the supernatant discarded. Cells are then resuspended in 150 μL (final concentration 7.5 μg/mL) of propidium iodide (PI) in PBS and incubated at 37° C., 5% CO2 for 15 minutes. After 15 minutes, cells are analysed by flow cytometry (BD accuri) using the FL3 window. The % viability is calculated as the % of cells that are PI negative in the test wells normalised to the DMSO control.

[1] = test system: CD3/IL2 stimulated PBMC cells; experiment: IFNγ release from CD3/IL2 stimulated PBMC cells (assay (a)); assay type: cell-based; details: Homo sapiens, CD3/IL2 stimulation, 48 h, ELISA
Procedure: (a) IFNγ Release from CD3/IL2 Stimulated PBMC Cells
PBMCs from healthy subjects are separated from whole blood using a density gradient (Lymphoprep, Axis-Shield Healthcare). Cells are added to a 96 well plate, and compound at the desired concentration added 2 hours prior to stimulation with a mixture of monoclonal antibody to CD3 (1 μg/ml, eBioscience) and human recombinant IL2 (10 ng/ml, Peprotech). After 48 hours incubation under normal tissue culture conditions, supernatants are collected and IFNγ release determined by Sandwich ELISA (Duo-set, R&D System). The IC50 is determined from the dose response curve.

[2] = Solubility in fasted-state simulated colonic fluid (FaSSCoF) at pH 6.5; assay type: physicochemical; details: 25 °C, pH 6.5, fassgf or other biorelevant, thermodynamic from solid, pH 6.5, 25° C.
Procedure: The solubilities of compounds of the invention in FaSSCoF at pH 6.5 are determined using a modification of a previously-reported procedure (Vertzoni, M., et al. Pharm. Res. 2010, 27, 2187-2196). In place of the bile salt extract employed in the original procedure (which extract is no longer available), the modified procedure uses a mixture of sodium taurochlorate (0.15 g), glycocholic acid (0.15 g), ursodeoxycholic acid (0.05 g), cholic acid (0.05 g), and glycodeoxycholic acid (0.05 g). These five bile acids are ground together with a mortar and pestle to produce a fine white powder that is incorporated into the FaSSCoF, as outlined below.
Tris(hydroxymethyl)aminomethane (Tris; 0.275 g) and maleic acid (0.44 g) are dissolved in water (35 mL) to give a solution whose pH is adjusted to 6.5 by treatment with 0.5M NaOH (ca. 12 mL). The solution is then made up to 50 mL with water. A portion of this Tris/maleate buffer solution (ca. 25 mL) is added to a 0.5 L round-bottomed flask, before being treated with 0.00565 g of the bile acid mixture described above. Solutions of phosphatidylcholine (0.0111 g) in DCM (0.15 mL) and palmitic acid (0.0013 g) in DCM (0.15 mL) are added, then the organic solvent is evaporated off under reduced pressure at 40° C. until a clear solution, with no perceptible DCM odour, is achieved. The volume of the evaporated solution is adjusted to 50 mL by addition of the remainder of Tris/maleate buffer, then BSA (0.115 g) is added, before being dissolved by gentle agitation.
Test compounds are suspended in the pH 6.5 FaSSCoF medium to give a maximum final concentration of 2-10 mg/mL. The suspensions are equilibrated at 25° C. for 24 h, before being filtered through a glass fibre C filter. The filtrates are then diluted as appropriate for injection and quantification by HPLC with reference to a standard. Different volumes of the standard, diluted and undiluted sample solutions are injected and the solubilities are calculated using the peak areas determined by integration of the peak found at the same retention time as the principal peak in the standard injection.

[3] = Systemic pharmacokinetics and total colon tissue distribution after single oral administration in mice; assay type: in vivo, male C57BL/6 mice; details: oral 10 mg/kg
Procedure: Studies were conducted by Sai Life Sciences (Hinjewadi, Pune, India) to investigate the systemic pharmacokinetics and total colon tissue distribution of compounds of the invention following a single oral administration in male C57BL/6 mice.
A group of twenty four male mice were administered with a solution of test compound formulated at a dose of 10 mg/10 mL/kg in aqueous hydroxypropyl-β-cyclodextrin (20% w/v in water). Blood samples (approximately 60 μL) were collected from retro-orbital plexus of each mouse under light isoflurane anaesthesia such that the samples were obtained at 0.5, 1, 2, 4, 6, 8, 12 and 24 hr. The blood samples were collected from a set of three mice at each time point in a labeled micro centrifuge tube containing K2EDTA as anticoagulant. Plasma samples were separated by centrifugation at 4000 rpm for 10 min and stored below −70° C. until bioanalysis. After collection of blood sample, animals were humanely euthanized by carbon dioxide asphyxiation to collect total colon tissues. The colons were flushed with cold PBS (pH7.4) to remove contents. The total colon tissues were homogenized with cold PBS (pH7.4) of twice the weight of colon tissue and stored below −70° C. Total volume was three times the total colon tissue weights. All samples were processed for analysis by protein precipitation using acetonitrile and analyzed with a fit-for-purpose LC-MS/MS method. Pharmacokinetic parameters were calculated using the non-compartmental analysis tool of Phoenix WinNonlin® (Version 6.3).

[4] = Run 1, read-out: pH 6.5 FaSSCoF Solubility Run 1
[5] = Run 2, read-out: pH 6.5 FaSSCoF Solubility Run 2

Row | SMILES | % viability at 1 μg/mL (Jurkat cells) [%] | IC50 [1] [µM] | solubility thermodynamic at 24 h [2, 4] [mg/mL] | solubility thermodynamic at 24 h [2, 5] [mg/mL] | AUC(0-t) ([3]; male, C57BL/6, mouse, plasma, read-out: AUC0-24 h P (plasma)) [µg·h/mL] | Cmax ([3]; male, C57BL/6, mouse, plasma, read-out: Cmax P (plasma)) [µg/mL] | Cmax ([3]; male, C57BL/6, mouse, total colon tissue, total colon, read-out: Cmax C (total colon)) [ng/g] | AUC0-24 h C (total colon) ([3]; total colon)
1 | CCc1cc(O)c(F)cc1-c1ccc2c(-c3nc4c([nH]3)CCN(C(=O)c3cnc(N5CCC[C@H]5CO)cn3)C4)n[nH]c2c1 [Example 2(h), (S)-(2-(6-(2-ethyl-5-fluoro-4-hydroxyphenyl)-1H-indazol-3-yl)-1,4,6,7-tetrahydro-5H-imidazo[4,5-c]pyridin-5-yl)(5-(2-(hydroxymethyl)pyrrolidin-1-yl)pyrazin-2-yl)methanone] | 56 | 0.0121 | 0.03 (≈ 51.5 µM) | 0.04 (≈ 68.7 µM) |  |  |  | 
2 | CCc1cc(O)c(F)cc1-c1ccc2c(-c3nc4c([nH]3)CCN(C(=O)c3cnc(N(C)C5CCN(C)CC5)cn3)C4)n[nH]c2c1 [Example 1, (2-(6-(2-Ethyl-5-fluoro-4-hydroxyphenyl)-1H-indazol-3-yl)-1,4,6,7-tetrahydro-5H-imidazo[4,5-c]pyridin-5-yl)(5-(methyl(1-methylpiperidin-4-yl)amino)pyrazin-2-yl)methanone] | 14 | 0.0226 | 0.01 (≈ 16.4 µM) | 0.01 (≈ 16.4 µM) |  |  |  | 
3 | CCc1cc(O)c(F)cc1-c1ccc2c(-c3nc4c([nH]3)CCN(C(=O)c3cnc(N5CCCCC5)cn3)C4)n[nH]c2c1 [Reference Compound, reference compound] | 49 | 0.0813 | 0.006 (≈ 10.6 µM) | 0.006 (≈ 10.6 µM) | 0.368 | 0.114 | 3230 | 43,739 h · ng/g
4 | CCc1cc(O)c(F)cc1-c1ccc2c(-c3nc4c([nH]3)CCN(C(=O)c3cnc(NCCOCCOCCOC)cn3)C4)n[nH]c2c1 [Example 2(m), (2-(6-(2-ethyl-5-fluoro-4-hydroxyphenyl)-1H-indazol-3-yl)-6,7-dihydro-1H-imidazo[4,5-c]pyridin-5(4H)-yl)(5-((2-(2-(2-methoxyethoxy)ethoxy)ethyl)amino)pyrazin-2-yl)methanone] | 88 | 0.0152 |  |  |  |  |  | 

— patent US10851097B2, “4,5,6,7-tetrahydro-1H-imidazo[4,5-c]pyridine and 1,4,5,6,7,8-hexahydroimidazo[4,5-d]azepine derivatives as janus kinase inhibitors” (Topivert Pharma Limited, priority 2015, dated 2020)
